Data on 5 compounds can be found in patent US20090099167A1, “Organic compounds” (Novartis Institutes for Biomedical Research, priority 2004, published 2009).

Common to all, as to assay type: biochemical
One assay addresses c-Src kinase (Homo sapiens, UniProt P12931). The experiment in a line: c-Src kinase inhibition. Particulars: Table 4; read-out: s-Scr, activity (IC50 for kinase inhibition). An excerpt: An appropriate assay is described in Andrejauskas-Buchdunger et al., Cancer Res. 52, 5353-8 (1992).
The target of assay [1] is T1, human insulin receptor (Ins-R) (Homo sapiens, UniProt P06213).
T1 construct: encoding the amino acid region 919-1343 of the intra-cytoplasmic kinase domain of the human insulin receptor; made in house; host or cells: baculovirus (Bac-to-Bac)
T1 sequence (P06213 958-1382 limits assumed): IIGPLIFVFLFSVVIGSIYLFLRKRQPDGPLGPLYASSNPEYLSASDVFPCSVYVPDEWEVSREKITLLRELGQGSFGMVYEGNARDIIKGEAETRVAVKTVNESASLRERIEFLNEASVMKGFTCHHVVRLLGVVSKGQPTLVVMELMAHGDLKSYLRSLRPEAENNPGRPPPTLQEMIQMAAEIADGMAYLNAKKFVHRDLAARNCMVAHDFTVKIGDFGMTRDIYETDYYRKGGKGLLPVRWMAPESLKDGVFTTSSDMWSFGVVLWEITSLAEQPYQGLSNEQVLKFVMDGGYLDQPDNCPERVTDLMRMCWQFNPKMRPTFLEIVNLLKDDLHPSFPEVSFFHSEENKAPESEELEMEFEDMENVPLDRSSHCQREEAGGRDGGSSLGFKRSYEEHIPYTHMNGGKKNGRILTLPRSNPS
The experiment in a line: Ins-R tyrosine kinase assay, GST-Ins-R. Particulars: Table 4; read-out: Ins-R, activity (IC50 for kinase inhibition). The source says:
The inhibition of IGF-1R and Ins-R can be determined as follows: The baculovirus donor vector pfbgx3IGFIRcd is used to generate a recombinant baculovirus that expresses the amino acid region 950-1337 of the mature peptide cytoplasmic domain of the human IGF-IR. To generate the cDNA fragment encoding the amino acid region 919-1343 of the intra-cytoplasmic kinase domain of the human insulin receptor, pC5hInsR is used. The fragments of the human IGF-IR and Ins-R are cloned, expressed and small-scale purified as a factor Xa-cleavable glutathione-S-transferase (GST)-fusion protein using the Bac-to-Bac™ system (GIBCO BRL) of recombinant baculovirus generation. Virus containing media is collected from the transfected cell culture and used for infection to increase its titer. Virus containing media obtained after two rounds of infection is used for large-scale protein expression. Cell extracts are prepared and loaded onto a glutathione-Sepharose (Pharmacia) column. After washing, the GST-tagged proteins are then eluted with a glutathione-containing buffer. Purified protein is stored at −70° C. in elution buffer. Tyrosine protein kinase assays with purified GST-IGF-1R and GST-ins-R are carried in a final volume of 30 μl containing 20 mM Tris-HCl, pH 7.6, 10 mM MgCl2, 0.01 mM Na3VO4, 1% DMSO, 1 mM DTT, 3 μg/ml poly(Glu,Tyr) 4:1 and 10 μM ATP (γ-[^33P]-ATP 0.1 μCi). The assay is performed in 96-well plates at ambient temperature for 20 min and terminated by addition of 25 μl 0.05 M EDTA pH 7.0. An aliquot of 40 μl is spotted with a multichannel dispenser on Whatman P81 membranes mounted in a Millipore Microtiter filter manifold connected to a low vacuum source. After elimination of liquid, the membrane is transferred to a sequence of 4 washing baths containing 0.5% H3PO4 and one with EtOH (shaking incubation for 10 min each), dried, mounted onto a Hewlett Packard TopCount manifold added 10 μl Microscint® and counted. Compounds of formula (I) show up to 90% inhibition of Ins-R at 10,000 nM, preferably between 60-90% inhibition. The inhibition of Tek can be determined as follows: The procedure of the expression, purification and assay these kinases has been described. Fabbro et al., Pharmacol. Ther. 82(2-3) 293-301 (1999). In brief, the glutathione S-transferase (GST) gene from the pAcG1 vector (Pharmingen) is excised with EcoRV and EcoRI and inserted into the cloning site of the Fast-Bac baculoviral vector (GIBCO) creating a 5530 bp vector with N-terminal cloning sites derived from the pAcG1 fusion vector (FBG0). The C-terminal cloning site may be any cloning site (from the Fast-Bac vector) downstream of the N-terminal cloning site used. N-terminally GST-fused (pAcG1, Pharmingen) KDR, Flt-1, Flk-1, Tek and PDGFR-β kinase domains are obtained from ProQinase, Freiburg, Germany. Tek is recloned into the FBG1 vector by EcoRI excision and ligation into EcoRI digested FBG1 (FBG1-Tek). The coding sequences for the whole cytoplasmic domain of c-Kit (aa 544-976) and c-Fms (aa 538-972) are amplified by PCR from human uterus and from human bone marrow cDNA libraries (Clontech), respectively. The amplified DNA fragments are fused to GST by cloning them into FBG1 as BamHI-EcoRI insertions, to yield FBG1-c-Kit and FBG1-c-Fms. Tek is recloned into the FBG0 transfer vector by EcoRI excision and ligation into EcoRI digested FBG0 (FBG-Tie2/Tek). FGFR-1 and c-met kinase domains are obtained by PCR from human A431 cells. N-terminal primers contain an overhanging EcoRI site, while C-terminal primers contain a XhoI site to aid cloning into the transfer vectors. After digestion of both the PCR fragments and FBG0 the cleavage products are gel-purified and ligated together to form the kinase constructs (FBG-Met, FBG-FGFR-1).

The next assay concerns the target T2, c-Abl kinase (Homo sapiens, UniProt P00519).
T2 construct: The His-tagged kinase domain of c-Abl is cloned and expressed in the baculovirus/Sf9 system; His; made in house; host or cells: Sf9 (baculovirus)
T2 sequence (P00519 242-493 limits assumed): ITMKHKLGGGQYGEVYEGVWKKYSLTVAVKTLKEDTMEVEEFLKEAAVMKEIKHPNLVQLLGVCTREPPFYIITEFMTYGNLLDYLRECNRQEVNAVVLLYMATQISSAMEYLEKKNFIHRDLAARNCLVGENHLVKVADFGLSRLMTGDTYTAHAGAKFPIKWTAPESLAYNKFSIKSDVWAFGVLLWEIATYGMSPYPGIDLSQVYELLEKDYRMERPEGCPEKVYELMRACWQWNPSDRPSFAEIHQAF
The experiment in a line: c-Abl protein-tyrosine kinase filter binding assay. Particulars: Table 4; read-out: c-abl, activity (IC50 for kinase inhibition). On the procedure:
The His-tagged kinase domain of c-Abl is cloned and expressed in the baculovirus/Sf9 system as described by Bhat et al. in J. Biol. Chem. 1997; 272:16170-16175. A protein of 37 kD (c-Abl kinase) is purified by a two-step procedure over a Cobalt metal chelate column followed by an anion exchange column with a yield of 1-2 mg/L of Sf9 cells (Bhat et al., reference cited). The purity of the c-Abl kinase is >90% as judged by SDS-PAGE after Coomassie blue staining. The assay contains (total volume of 30 μL): c-Abl kinase (50 ng), 20 mM Tris.HCl, pH 7.5, 10 mM MgCl2, 10 μM Na3VO4, 1 mM DTT and 0.06 μCi/assay [γ^33 P]-ATP (5 μM ATP) using 30 μg/mL poly-Ala,Glu,Lys,Tyr-6:2:5:1 (Poly-AEKY, Sigma P1152) in the presence of 1% DMSO. Reactions are terminated by adding 10 μL of 250 mM EDTA and 30 μL of the reaction mixture is transferred onto Immobilon-PVDF membrane (Millipore, Bedford, Mass., USA) previously soaked for 5 min with methanol, rinsed with water, then soaked for 5 min with 0.5% H3PO4 and mounted on vacuum manifold with disconnected vacuum source. After spotting all samples, vacuum is connected and each well rinsed with 200 μL 0.5% H3PO4. Membranes are removed and washed on a shaker with 0.5% H3PO4 (4 times) and once with ethanol. Membranes are counted after drying at ambient temperature, mounting in Packard TopCount 96-well frame, and addition of 10 μL/well of Microscint™ (Packard).

A further assay has as its target T3, human Flt-3 (Homo sapiens, UniProt P36888).
T3 construct: expressing the amino acid region amino acids 563-993 of the cytoplasmic kinase domain of human Flt-3; made in house; host or cells: Sf9 (baculovirus)
T3 sequence (P36888 563-993): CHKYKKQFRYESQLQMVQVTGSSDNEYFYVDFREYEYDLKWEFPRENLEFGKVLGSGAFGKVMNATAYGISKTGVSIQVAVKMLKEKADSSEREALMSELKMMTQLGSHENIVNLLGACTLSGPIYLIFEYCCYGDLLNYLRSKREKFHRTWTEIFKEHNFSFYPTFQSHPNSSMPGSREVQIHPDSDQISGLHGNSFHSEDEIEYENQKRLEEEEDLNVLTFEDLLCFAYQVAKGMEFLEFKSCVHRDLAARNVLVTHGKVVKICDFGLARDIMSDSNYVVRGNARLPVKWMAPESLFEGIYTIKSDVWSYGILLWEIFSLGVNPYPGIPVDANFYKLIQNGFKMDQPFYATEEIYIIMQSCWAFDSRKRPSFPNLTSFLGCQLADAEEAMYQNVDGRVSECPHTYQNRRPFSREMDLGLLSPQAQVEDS
Put plainly: Flt3 kinase inhibition, GST-Flt-3, 33P incorporation into poly(Glu,Tyr). Particulars: Table 4; read-out: Flt-3, activity (IC50 for kinase inhibition). The method, then:
The compounds to be tested are then diluted in culture medium (without FCS, with 0.1% bovine serum albumin) and added to the cells. (Controls comprise medium without test compounds). After two hours' incubation at 37° C., recombinant VEGF is added; the final VEGF concentration is 20 ng/ml). After a further five minutes incubation at 37° C., the cells are washed twice with ice-cold PBS (phosphate-buffered saline) and immediately lysed in 100 μl lysis buffer per well. The lysates are then centrifuged to remove the cell nuclei, and the protein concentrations of the supernatants are determined using a commercial protein assay (BIORAD). The lysates can then either be immediately used or, if necessary, stored at −20° C. A sandwich ELISA is carried out to measure the VEGF-R2 phosphorylation: a monoclonal antibody to VEGF-R2 (for example Mab 1495.12.14; ProQinase, Freiburg, Germany) is immobilized on black ELISA plates (OptiPlate™ HTRF-96 from Packard). The plates are then washed and the remaining free protein-binding sites are saturated with 3% TopBlock® (Juro, Cat. # TB232010) in phosphate buffered saline with Tween 20® (polyoxyethylen(20)-sorbitane monolaurate, ICI/Uniquema) (PBST). The cell lysates (20 μg protein per well) are then incubated in these plates overnight at 4° C. together with an antiphosphotyrosine antibody coupled with alkaline phosphatase (PY20:AP from Zymed). […] The luminescence is measured in a Packard Top Count Microplate Scintillation Counter. The difference between the signal of the positive control (stimulated with VEGF) and that of the negative control (not stimulated with VEGF) corresponds to VEGF-induced VEGF-R2 phosphorylation (=100%). The activity of the tested substances is calculated as percent inhibition of VEGF-induced VEGF-R2 phosphorylation, wherein the concentration of substance that induces half the maximum inhibition is defined as the IC50 (inhibitory dose for 50% inhibition). […] Flt3 kinase inhibition is determined as follows: The baculovirus donor vector pFbacG01 (GIBCO) is used to generate a recombinant baculovirus expressing the amino acid region amino acids 563-993 of the cytoplasmic kinase domain of human Flt-3. The coding sequence for the cytoplasmic domain of Flt-3 is amplified by PCR from human c-DNA libraries (Clontech). The amplified DNA fragments and the pFbacG01 vector are made compatible for ligation by digestion with BamH1 and HindIII. Ligation of these DNA fragments results in the baculovirus donor plasmid Flt-3(1.1). The production of the viruses, the expression of proteins in Sf9 cells and the purification of the GST-fused proteins are performed as follows: Production of virus: Transfer vector (pFbacG01-Flt-3) containing the Flt-3 kinase domain is transfected into the DH10Bac cell line (GIBCO) and the transfected cells are plated on selective agar plates. Colonies without insertion of the fusion sequence into the viral genome (carried by the bacteria) are blue. Single white colonies are picked and viral DNA (bacmid) is isolated from the bacteria by standard plasmid purification procedures. Sf9 or Sf21 cells (American Type Culture Collection) are then transfected in flasks with the viral DNA using Cellfectin reagent. Determination of small scale protein expression in Sf9 cells: Virus containing media is collected from the transfected cell culture and used for infection to increase its titre. Virus containing media obtained after two rounds of infection is used for large-scale protein expression. For large-scale protein expression 100 cm^2 round tissue culture plates are seeded with 5×10^7 cells/plate and infected with 1 mL of virus-containing media (approx. 5 MOIs). After 3 days the cells are scraped off the plate and centrifuged at 500 rpm for 5 min. Cell pellets from 10-20, 100 cm^2 plates, are resuspended in 50 mL of ice-cold lysis buffer (25 mMTris-HCl, pH 7.5, 2 mM EDTA, 1% NP-40, 1 mM DTT, 1 mM PMSF). The cells are stirred on ice for 15 min and then centrifuged at 5000 rpms for 20 min. […]

Sequence of c-Src kinase (P12931 whole entry): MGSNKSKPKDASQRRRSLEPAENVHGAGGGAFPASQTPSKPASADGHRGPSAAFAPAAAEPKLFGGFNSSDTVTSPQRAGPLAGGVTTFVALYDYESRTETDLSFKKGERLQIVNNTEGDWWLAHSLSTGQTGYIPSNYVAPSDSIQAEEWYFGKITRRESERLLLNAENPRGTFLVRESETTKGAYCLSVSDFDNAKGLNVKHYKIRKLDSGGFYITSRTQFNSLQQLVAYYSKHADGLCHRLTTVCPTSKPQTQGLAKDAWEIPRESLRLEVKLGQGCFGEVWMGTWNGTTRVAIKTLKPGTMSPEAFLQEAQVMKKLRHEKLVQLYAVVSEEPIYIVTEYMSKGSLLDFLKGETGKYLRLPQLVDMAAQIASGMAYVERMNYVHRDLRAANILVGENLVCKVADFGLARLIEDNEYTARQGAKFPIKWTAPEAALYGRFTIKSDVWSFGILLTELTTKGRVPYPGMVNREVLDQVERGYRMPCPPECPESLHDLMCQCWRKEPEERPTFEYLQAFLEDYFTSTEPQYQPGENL

For the compound `CN1CCN(c2ccc(-c3cnn4c(N)c(-c5ccccc5)cnc34)cc2)CC1` [Example 7, 3-[4-(4-Methyl-piperazin-1-yl)-phenyl]-6-phenyl-pyrazolo[1,5-a]pyrimidin-7-ylamine], the concentration for half-maximal inhibition (IC50) at c-Src kinase is under 10 µM.
Regarding `Nc1c(-c2c(Cl)cccc2Cl)cnc2c(-c3ccccc3)cnn12` [Example 16, 6-(2,6-Dichloro-phenyl)-3-phenyl-pyrazolo[1,5-a]pyrimidin-7-ylamine], the half-inhibitory concentration (IC50) in assay [1] is under 10 µM.
For the compound `CN1CCN(c2ccc(-c3cnn4c(N)c(-c5csc6ccccc56)cnc34)cc2)CC1` [Example 19, 6-Benzo[b]thiophen-3-yl-3-[4-(4-methyl-piperazin-1-yl)-phenyl]-pyrazolo[1,5-a]pyrimidin-7-ylamine], the IC50 at c-Abl kinase and at c-Src kinase was under 10 µM each time.
For `COc1ccccc1-c1cnc2c(-c3ccc(N4CCN(C)CC4)cc3)cnn2c1N` [Example 27, 6-(2-Methoxy-phenyl)-3-[4-(4-methyl-piperazin-1-yl)-phenyl]-pyrazolo[1,5-a]pyrimidin-7-ylamine], the half-maximal inhibitory concentration (IC50) at c-Src kinase is under 10 µM.
As for `CN1CCN(c2cccc(-c3cnn4c(N)c(-c5ccsc5)cnc34)c2)CC1` [Example 49, 3-[3-(4-Methyl-piperazin-1-yl)-phenyl]-6-thiophen-3-yl-pyrazolo[1,5-a]pyrimidin-7-ylamine], at human Flt-3, the concentration for half-maximal inhibition (IC50) was under 10 µM.
